Values joined by “and” are separate entries in the source; they are usually repeats but may differ in a detail not shown here. Identical values can stand only once.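 GI50 = concentration required for 50% inhibition of growth. TGI denotes the concentration required for complete inhibition of growth.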
Experiments:
Test in all cases: growth of human tumour cells (NCI), 384-well format
786-0 renal = test system: 786-0 renal
A498 renal = test system: A498 renal
A549 NSCLC = test system: A549 NSCLC
ACHN renal = test system: ACHN renal
BT-549 breast = test system: BT-549 breast
CAKI-1 renal = test system: CAKI-1 renal
CCRF-CEM leukemia = test system: CCRF-CEM leukemia
COLO 205 colon = test system: COLO 205 colon
DU-145 prostate = test system: DU-145 prostate
EKVX NSCLC = test system: EKVX NSCLC
HCC-2998 colon = test system: HCC-2998 colon
HCT-116 colon = test system: HCT-116 colon
HCT-15 colon = test system: HCT-15 colon
HL-60(TB) leukemia = test system: HL-60(TB) leukemia
HOP-62 NSCLC = test system: HOP-62 NSCLC
HOP-92 NSCLC = test system: HOP-92 NSCLC
HS 578T breast = test system: HS 578T breast
HT29 colon = test system: HT29 colon
IGROV1 ovarian = test system: IGROV1 ovarian
K-562 leukemia = test system: K-562 leukemia
KM12 colon = test system: KM12 colon
LOX IMVI melanoma = test system: LOX IMVI melanoma
M14 melanoma = test system: M14 melanoma
MALME-3M melanoma = test system: MALME-3M melanoma
MCF7 breast = test system: MCF7 breast
MDA-MB-231 breast = test system: MDA-MB-231 breast
MDA-MB-435 melanoma = test system: MDA-MB-435 melanoma
MDA-MB-468 breast = test system: MDA-MB-468 breast
MOLT-4 leukemia = test system: MOLT-4 leukemia
NCI-H226 lung = test system: NCI-H226 lung
NCI-H23 lung = test system: NCI-H23 lung

For `O=S(=O)(NCCNC/C=C/c1ccc(Br)cc1)c1cccc2cnccc12`, the GI50 ([…]-0 renal) was 7.52 µM and 11.2 µM, the TGI (786-0 renal) was 20.1 µM and 23.3 µM and the GI50 (A498 renal) was 5.06 µM and 10.3 µM. For the same compound, the TGI (A498 renal) was 19.6 µM and 22.1 µM, the GI50 (A549 NSCLC) was 14 µM and the TGI (A549 NSCLC) was 27.1 µM. For the same compound, the GI50 (ACHN renal) was 11.7 µM and 13.5 µM, the TGI (ACHN renal) was 24 µM and 26.4 µM and the GI50 (BT-549 breast) was 3.57 µM and 6.51 µM. For the same compound, the TGI (BT-549 breast) was 11.8 µM and 19.2 µM, the GI50 (CAKI-1 renal) was 7.31 µM and 7.09 µM and the TGI (CAKI-1 renal) was 20.1 µM and 19.8 µM. For the same compound, the GI50 (CCRF-CEM leukemia) was 3.81 µM and 5.3 µM, the TGI (CCRF-CEM leukemia) was 11.4 µM and 16.8 µM and the TGI (COLO 205 colon) was 2.6 µM and 16.1 µM. For the same compound, the GI50 (DU-145 prostate) was 14.5 µM and 13.8 µM, the TGI (DU-145 prostate) was 27.8 µM and 26.9 µM and the GI50 (EKVX NSCLC) was 6.07 µM and 10 µM. For the same compound, the TGI (EKVX NSCLC) was 18.9 µM and 21.7 µM, the GI50 (HCC-2998 colon) was 2.15 µM and 2.09 µM and the TGI (HCC-2998 colon) was 3.82 µM and 3.91 µM. The GI50 (HCT-116 colon) was 5.55 µM and 5.73 µM, the TGI (HCT-116 colon) was 17.9 µM and 17.3 µM and the GI50 (HCT-15 colon) was 13.2 µM and 10.1 µM. For the same compound, the TGI (HCT-15 colon) was 26.1 µM and 21.9 µM, the GI50 (HL-60(TB) leukemia) was 1.21 µM and 3.62 µM and the TGI (HL-60(TB) leukemia) was 10.8 µM and 12.6 µM. The GI50 (HOP-62 NSCLC) was 11.8 µM and 14.2 µM, the TGI (HOP-62 NSCLC) was 24.2 µM and 27.3 µM and the GI50 (HOP-92 NSCLC) was 10.7 µM and 10.8 µM. The TGI (HOP-92 NSCLC) was 22.6 µM and 22.7 µM, the GI50 (HS 578T breast) was 4.89 µM and 8.58 µM and the TGI (HS 578T breast) was 16.5 µM and 20.7 µM. The GI50 (HT29 colon) was 3.17 µM and 4.08 µM, the TGI (HT29 colon) was 9.44 µM and 13.5 µM and the GI50 (IGROV1 ovarian) was 11.1 µM. The TGI (IGROV1 ovarian) was 23.3 µM, the GI50 (K-562 leukemia) was 1.88 µM and 3.3 µM and the TGI (K-562 leukemia) was 3.88 µM and 10.6 µM. The GI50 (KM12 colon) was 4.08 µM and 6.28 µM, the TGI (KM12 colon) was 19 µM and 18.3 µM and the GI50 (LOX IMVI melanoma) was 11.6 µM and 10.2 µM. The TGI (LOX IMVI melanoma) was 23.9 µM and 22 µM, the TGI (M14 melanoma) was 3.48 µM and 18.4 µM and the GI50 (MALME-3M melanoma) was 0.391 µM and 2.09 µM. The TGI (MALME-3M melanoma) was 1.62 µM and 4.15 µM, the GI50 (MCF7 breast) was 3.15 µM and 5.52 µM and the TGI (MCF7 breast) was 18.8 µM and 18.2 µM. For the same compound, the GI50 (MDA-MB-231 breast) was 11.5 µM and 10.9 µM, the TGI (MDA-MB-231 breast) was 23.8 µM and 22.9 µM and the GI50 (MDA-MB-435 melanoma) was 13 µM and 13.2 µM. The TGI (MDA-MB-435 melanoma) was 25.7 µM and 26 µM, the GI50 (MDA-MB-468 breast) was 3.44 µM and 3.33 µM and the TGI (MDA-MB-468 breast) was 9.73 µM and 12.7 µM. The GI50 (MOLT-4 leukemia) was 2.47 µM and 3.65 µM, the TGI (MOLT-4 leukemia) was 6.41 µM and 12.7 µM and the GI50 (NCI-H226 lung) was 11.2 µM and 15.4 µM. For the same compound, the TGI (NCI-H226 lung) was 23.4 µM and 28.8 µM and the GI50 (NCI-H23 lung) was 6.06 µM and 10 µM.
